Measured values as given in patent US20260256770A1, “COMPOSITIONS FOR AND METHODS OF TREATING HEREDITARY AORTOPATHIES” (Duke University, priority 2021, published 2026).
“Also recorded” adds a separate entry of the source.

Experiments:
FBN1 mutant MFS mouse [1] = assay: Accelerated MFS model: osmotically delivered angiotensin II infusion in FBN1 mutant MFS mouse; format: in vivo
Text: (§1) The Examples provided infra use a novel murine MFS model of accelerated aortic aneurysm formation and cardiomyopathy. This MFS uses two well-characterized in vivo systems for studying aortopathy and cardiomyopathy, namely, the FBN1 mutant MFS mouse and osmotically delivered angiotensin II infusion. In this accelderated model, significant aortic aneurysms were observed as early as 10 days after angiotensin II pump implantation. […] Overwhelmingly, these deaths were a result of ascending aortic aneurysm rupture or dissection. […] Similarly, the accelerated MFS model described and used herein produced a dilated cardiomyopathy as early as 14 days after angiotensin II minipump installation, as determined by echocardiographic measurements of end-diastolic volume and ejection fraction, heart mass-to-body weight ratios, and hematoxylin and eosin tissue staining patterns consistent with the diagnosis. After 14 days of pump installation, 60% of surviving angiotensin II-infused MFS mice met a defined echocardiographic criteria for dilated cardiomyopathy.
(§2) To better understand these clinical differences, a MFS mouse model was generated to facilitate high throughput therapeutic screening. Using exogenous angiotensin II in MFS mice, ascending aortic aneurysms can be generated in 2 weeks instead of 6-9 months (Cavanaugh N B, et al. (2017) Ann Thorac Surg. 104:657-665). […] TRPC4 antagonists therefore represent an opportunity to replace surgery in MFS aortopathy.

129S MFS mice = conditions: 129S background, Mmp17/EGFR/p38MAPK/ERK effects; cited from earlier work
TRPC4 = target: T1, TRPC4 (Mus musculus, UniProt Q9QUQ5); conditions: ML204 as reference for projected binding affinity of candidate inhibitors; cited from earlier work
T1 construct: expressed in transfected cells; host or cells: HEK293
T1 sequence (Q9QUQ5 1-890 isoform Q9QUQ5-2): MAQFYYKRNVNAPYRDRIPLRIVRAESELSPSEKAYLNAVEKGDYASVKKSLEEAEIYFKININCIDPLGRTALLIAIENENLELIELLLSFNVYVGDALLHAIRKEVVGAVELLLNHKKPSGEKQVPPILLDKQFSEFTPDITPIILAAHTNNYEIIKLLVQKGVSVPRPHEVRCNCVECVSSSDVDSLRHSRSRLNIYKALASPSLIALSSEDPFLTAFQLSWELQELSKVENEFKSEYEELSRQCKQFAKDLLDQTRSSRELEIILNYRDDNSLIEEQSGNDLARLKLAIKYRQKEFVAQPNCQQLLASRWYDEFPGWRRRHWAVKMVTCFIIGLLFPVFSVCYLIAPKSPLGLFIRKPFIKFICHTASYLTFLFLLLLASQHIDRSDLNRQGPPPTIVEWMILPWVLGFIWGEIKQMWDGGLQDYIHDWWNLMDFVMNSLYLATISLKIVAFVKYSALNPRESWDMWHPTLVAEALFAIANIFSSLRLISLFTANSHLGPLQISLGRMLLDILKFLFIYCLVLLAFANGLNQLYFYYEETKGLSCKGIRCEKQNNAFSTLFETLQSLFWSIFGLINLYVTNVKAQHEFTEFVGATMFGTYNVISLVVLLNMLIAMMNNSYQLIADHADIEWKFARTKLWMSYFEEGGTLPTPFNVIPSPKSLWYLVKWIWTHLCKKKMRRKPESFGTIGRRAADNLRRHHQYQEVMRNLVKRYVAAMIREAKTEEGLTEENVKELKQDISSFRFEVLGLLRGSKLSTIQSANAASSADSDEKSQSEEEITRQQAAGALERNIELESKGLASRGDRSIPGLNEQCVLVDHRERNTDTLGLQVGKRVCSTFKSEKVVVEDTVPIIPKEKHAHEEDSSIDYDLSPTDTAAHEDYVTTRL

FBN1 mutant MFS mouse [2] = conditions: instead of 6-9 months in MFS mice; cited from earlier work
[3] = Accelerated MFS model: osmotically delivered angiotensin II infusion in FBN1 mutant MFS mouse; format: in vivo; conditions: angiotensin II-infused wild-type mice over the treatment period
Text: as §1, §2

MFS mice = conditions: cited from earlier work
[4] = test system: accelerated MFS (aMFS) mice; conditions: aMFS aneurysms generated with exogenous angiotensin II; cited from earlier work
MFS patients = conditions: clinical; cited from earlier work

Compound: angiotensin II (DRVYIHPF; Angiotensin-2; UniProt P11859 25-32, looked up) [osmotically delivered exogenous angiotensin II used to accelerate aneurysm formation in MFS mice]
- deaths of treatment group (FBN1 mutant MFS mouse [1]; at 14 days after implant): one third
- deaths of treatment group (FBN1 mutant MFS mouse [1]; at 28 days after implant): more than half

Compound: C#Cc1cccc(Nc2ncnc3cc(OCCOC)c(OCCOC)cc23)c1 [Erolotinib]
- aggressive MFS phenotype (129S MFS mice): rescue the aggressive MFS phenotype

Compound: Cc1cc(N2CCCCC2)nc2ccccc12 [ML204, 4-Methyl-2-(piperidin-1-yl) quinoline]
- IC50 (TRPC4): 960 to 2600 nM

Compound: angiotensin II [osmotically delivered exogenous angiotensin II used to accelerate aneurysm formation in MFS mice]
- time to generate ascending aortic aneurysms (FBN1 mutant MFS mouse [2]): 2 weeks
- time to significant aortic aneurysms after pump implantation (FBN1 mutant MFS mouse [1]; MFS mice): ≥ 10 days
- time to dilated cardiomyopathy after minipump installation (FBN1 mutant MFS mouse [1]; MFS mice, echocardiography): ≥ 14 days
- surviving mice meeting echocardiographic criteria for dilated cardiomyopathy (FBN1 mutant MFS mouse [1]; after 14 days of pump installation): 60%
- blood pressures (FBN1 mutant MFS mouse [1]; treatment group): not elevated
- aneurysm formation [3]: did not form aneurysms

Compound: CCCCc1nc(Cl)c(CO)n1Cc1ccc(-c2ccccc2-c2nn[nH]n2)cc1 [Losartan]
- aneurysm growth (MFS mice; MFS mice started on therapy after aneurysms have formed / later in life): only attenuates aneurysm growth; also recorded: aneurysms continue to grow albeit at a slower rate; also recorded: had less of an effect
- aneurysm formation / development (MFS mice; MFS mice treated prior to aneurysm development / at an early age): blocked aneurysm formation; also recorded: blocks aneurysm development; also recorded: did not develop aneurysms
- aortic diameter growth (MFS mice; estimate used for power calculation, 0.1 mm standard deviation): 0.4 mm
- response of aneurysms to therapy [4]: only partially respond
- aneurysm progression (MFS patients): only slowed aneurysm progression
- number of patients who ultimately required surgery (MFS patients): did not affect
